{"source": "paper PMC9803904", "about": "“Selective somatostatin receptor 5 inhibition improves hepatic insulin sensitivity” (Pharmacology Research & Perspectives, 2022)", "key": {"[1]": {"target": "T1, mouse SSTR5 (somatostatin receptor 5) (Mus musculus, UniProt O08858)", "T1 sequence (O08858 1-362)": "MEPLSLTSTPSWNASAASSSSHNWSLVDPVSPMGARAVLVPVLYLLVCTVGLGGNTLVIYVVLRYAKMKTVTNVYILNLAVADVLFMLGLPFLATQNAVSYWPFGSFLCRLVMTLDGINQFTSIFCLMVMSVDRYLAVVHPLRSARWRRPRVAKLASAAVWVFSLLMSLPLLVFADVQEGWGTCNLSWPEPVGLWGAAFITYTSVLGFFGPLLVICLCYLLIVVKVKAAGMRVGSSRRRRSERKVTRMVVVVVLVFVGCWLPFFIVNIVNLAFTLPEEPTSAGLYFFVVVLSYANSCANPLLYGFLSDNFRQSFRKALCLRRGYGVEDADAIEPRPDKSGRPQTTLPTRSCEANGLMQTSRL", "assay": "HTRF cAMP antagonist assay in CHO cells stably expressing mouse SSTR5, stimulated with SST28 and forskolin", "format": "cell-based"}, "[2]": {"target": "human SSTR5 (somatostatin receptor 5) (Homo sapiens, UniProt P35346)", "sequence (P35346 whole entry)": "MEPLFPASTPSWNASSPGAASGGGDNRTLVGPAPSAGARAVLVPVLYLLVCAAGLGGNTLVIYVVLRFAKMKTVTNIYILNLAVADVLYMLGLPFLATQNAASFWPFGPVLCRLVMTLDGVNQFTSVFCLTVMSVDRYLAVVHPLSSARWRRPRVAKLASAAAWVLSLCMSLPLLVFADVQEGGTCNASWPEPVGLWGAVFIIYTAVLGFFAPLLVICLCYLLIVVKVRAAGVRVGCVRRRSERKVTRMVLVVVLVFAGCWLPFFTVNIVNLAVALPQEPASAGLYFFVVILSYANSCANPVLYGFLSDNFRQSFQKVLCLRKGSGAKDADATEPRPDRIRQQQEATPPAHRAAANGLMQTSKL", "assay": "HTRF cAMP antagonist assay in CHO cells stably expressing human SSTR5, stimulated with SST28 and forskolin", "format": "cell-based"}}}
{"smiles": "Cc1c(C(=O)O)ccn(C2CCN(Cc3cc(C4CC4)c(-c4ccc(F)cc4)c(F)c3OC(C)C)CC2)c1=O", "note": "[compound-1]", "values": [{"measurement": "IC50", "setting": "[1]", "result": 31, "unit": "nM"}, {"measurement": "IC50", "setting": "[2]", "result": 9.8, "unit": "nM"}]}
